Measured values reported in US9447015B1, “(S)-2′-vinyl-abscisic acid derivatives” (Valent BioSciences Corporation, priority 2015, dated 2016).
“Also recorded” adds a separate entry of the source.

Experiments:
[1] = system: grapevines, Seedless 'Red Flame' (bud break and shoot development); experiment: Field study for breaking grape vine dormancy; format: in vivo; details: for Percent of Buds Broken / Shoot Length/Spur (total length of all shoots present on spur): 1% solution applied to dormant grape spurs
Procedure: A small plot field study to test the effect of experimental compounds on release of, or breaking grape vine dormancy was conducted near Thermal, Calif. in January, 2016. The grapevines, Seedless ‘Red Flame’, had been pruned to 2-4 node spurs (shortened canes) prior to treatment. Aqueous treatment solutions were prepared with a test compound, an appropriate buffering agent, and a silicone-based nonionic surfactant at 0.25% (v/v). Each spur was thoroughly wetted with a 1% (w/v) solution, which was applied with a foam brush. Dormancy breaking was assessed periodically by examining bud break (initiation of growth) and subsequent shoot development. […] Both a control treatment (aqueous solution with surfactant) and a positive control treatment (the commercial standard for bud breaking, hydrogen cyanamide) were included in this study for comparison.

[2] = system: Arabidopsis thaliana seed germination; experiment: Arabidopsis seed germination assay (promotion of germination in the presence of (S)-ABA); format: in vivo
Procedure: To determine whether the (S)-ABA derivatives of the present invention were effective antagonists, germination assays were performed with the model plant Arabidopsis thaliana. If the compounds are found to be antagonists, they may be useful to counter any undesirable side effects of (S)-ABA.
Arabidopsis seed was sterilized by shaking for five minutes in 200 proof ethanol, followed by shaking for five minutes in a 10% bleach solution. The seeds were then washed five times in sterile, distilled, de-ionized water and suspended in 0.1% phytoagar. The tubes containing the seeds were wrapped in aluminum foil and stratified at 4° C. for two days.
All compounds were tested at a concentration of 30 ppm in the presence or absence of 0.3 ppm (S)-ABA, in 24-well plates. For each compound, a 1000 ppm stock solution was prepared in distilled, deionized water containing 5% DMSO. The stock test solution (15 μL) was added to each well, plus or minus 1.5 μL of 100 ppm (S)-ABA in 5% DMSO. Appropriate amounts of distilled, de-ionized water was added to equalize volumes, and 450 μL of ½×Murashige and Skoog media containing 1.2% Bactoagar was then added to each well (final DMSO concentration was 0.5%). When the media solidified, ten to 15 sterile stratified Arabidopsis seeds were distributed into each well using a repeat pipettor. The plates were sealed with surgical tape and placed in a growth chamber running diurnal cycles of 12 hours of light at 24° C. and 12 hours of darkness at 19° C. The plates were scanned on days 3 through 14, and scored on day 14. The (S)-2′-vinyl-substituted ABA derivatives were scored on ability to promote germination in the presence of (S)-ABA. The results are summarized below in “Table 1: Arabidopsis seed germination promotion activity of 2′-vinyl-(S)-ABA derivatives.”

| SMILES | Percent of Buds Broken ([1]; 31 days post-treatment) [%] | Percent of Buds Broken ([1]; 48 days post-treatment) [%] | Shoot Length/Spur (total length of all shoots present on spur) ([1]; 48 days post-treatment) [cm] | Rating: Arabidopsis seed germination promotion activity ([2]; 30 ppm compound in the presence of 0.3 ppm (S)-ABA, scored on day 14) | antagonist nature compared to (S)-ABA ([2]; seed germination assay, 30 ppm with 0.3 ppm (S)-ABA) | Shoot Length/Spur (total length of all shoots present on spur) ([1]; 48 days post-treatment, listed as compound 23) | effect on bud break / breaking of woody plant dormancy ([1]; application to dormant grape spurs, 1% solution) |
| --- | --- | --- | --- | --- | --- | --- | --- |
| N#CN [Hydrogen cyanamide, hydrogen cyanamide, reference compound] | 21.0 | 58.8 | 25.2 | – | – | – | – |
| CC(=C/C(=O)O)/C=C/[C@@]1(O)C(/C=C/c2ccc(F)c(F)c2)=CC(=O)CC1(C)C [Compound 23] | 16.7 | 76.7 | 22.2 | +++ (Seeds germinated 8 to 10 days earlier than those treated with 0.3 ppm of (S)-ABA alone.) | antagonists of (S)-ABA; also recorded: one of the most potent (S)-ABA antagonist | intermediate between the spurs treated with the control and hydrogen cyanamide | significantly increased bud break |
